Data on 22 compounds can be found in patent US20190021380A1 (priority 2014, published 2019).

Assay [1] deals with T1, T1R1/T1R3 receptor (Felis catus, UniProt E3UMS2). The assay is described as follows: cell-based. The class given is cell-based. An excerpt:
(§1) HEK293 cells that stably express T1R3 and inducibly express T1R1 were exposed to transmembrane compounds alone or in combination with one or more amino acids and/or one or more nucleotides to activate the umami receptor. Activation of the T1R1/T1R3 receptor was detected by a change in intracellular calcium levels using a calcium sensitive fluorescent dye. Cells that express T1R3 but not T1R1 were used as a control. A FLIPR® Tetra or a FlexStation® 3 was used for data capture.
(§2) In each experiment, serial dilutions of up to 10 mM of the transmembrane compound were added to the T1R1/T1R3-expressing cells.

Assay [2] has as its target T1, T1R1/T1R3 receptor. The assay is described as follows: Example 8: agonist screening of transmembrane compounds on T1R1/T1R3 in HEK293 cells. The class given is cell-based, cat. To be noted: for agonist profile assessment: transmembrane compound alone, in words; for T1R1/T1R3 agonist: transmembrane compound tested at 0.01, 0.1 and 1 mM, HEK293 cells expressing T1R1/T1R3, calcium dye and/or luminescent reporter. The protocol:
HEK293 cells that stably express T1R3 and inducibly express T1R1 were exposed to a transmembrane compound. Activation of the T1R1/T1R3 receptor was detected by a change in intracellular calcium levels using a calcium sensitive fluorescent dye and/or a luminescent reporter system. […] A FLIPR® Tetra or a FlexStation® 3 was used for data capture.
Each transmembrane compound was tested at concentrations of 0.01 mM, 0.1 mM, and 1 mM. […] To generate the dose response curves, the transmembrane compound was tested at concentrations of between 0.0001 mM and 1.0 mM in the presence of GMP and Ala.

The target in assay [3] is T1, T1R1/T1R3 receptor. Put plainly: Example 8: PAM screening of transmembrane compounds with GMP and Ala on T1R1/T1R3 in HEK293 cells. To be noted: for PAM profile assessment: in the presence of GMP and Alanine, in words; for T1R1/T1R3 PAM: compound at 0.01, 0.1, 1 mM in combination with GMP+Ala mixtures (T1-T4), PAM if response to the combination is greater than the sum of the responses to compound alone and to GMP+Ala alone. It is filed as cell-based, cat. From the text:
HEK293 cells that stably express T1R3 and inducibly express T1R1 were exposed to transmembrane compound alone or in combination with Ala and GMP to activate the umami receptor. Activation of the T1R1/T1R3 receptor was detected by a change in intracellular calcium levels using a calcium sensitive fluorescent dye and/or a luminescent reporter system. […] A FLIPR® Tetra or a FlexStation® 3 was used for data capture.
Dose response curves were generated for each transmembrane compound at concentrations of 0 (buffer only), 0.01, 0.1 and 1 mM, wherein each of the three concentrations of transmembrane compound was tested in combination with 0.03 mM GMP+100 mM Ala (T1); 0.6 mM GMP+10 mM Ala (T2); 0.1 mM GMP+60 mM Ala (T3) and 0.3 mM GMP+60 mM Ala (T4). The T4 mixture was also tested in a 2-fold dilution series (the T4(X) Concentration). In these experiments, the first test concentration was 2× (2 times) the T4 concentration. The subsequent test concentrations were 2-fold dilutions from that (1×, 0.5× etc.). This dilution series was tested with or without the addition of the test compound at a constant 0.3 mM concentration.
Activation of the umami receptor was also determined in the presence of 1 mM GMP+100 mM Ala to generate a “maximum” umami receptor activation level.

The target in assay [4] is T1, T1R1/T1R3 receptor. The assay is described as follows: Example 6: activation of T1R1/T1R3 by transmembrane compounds, conducted as in Example 5. It is filed as cell-based. The following applies: T1R1/T1R3 EC50, +0.2 mM IMP.
From the text: as §1, §2

For assay [5], the target named is T1, T1R1/T1R3 receptor. It is filed as cell-based. The following applies: threshold in the presence of 0.2 mM IMP; CNBD = Could not be determined.
From the text: as §1, §2

Where “and” joins values, the source holds several entries; their conditions need not be identical. Equal entries are not always repeated.

For the compound `CCCC(CCC)NC(=O)c1ccc2c(c1)OCO2` [N-(heptan-4-yl)benzo[d][1,3]dioxole-5-carboxamide], at T1R1/T1R3 receptor [1] (in the presence of 0.2 mM IMP), the “Max resp ΔF/F +IMP (0.2 mM)” value was 1.4725 and 1.393 and 1.473. Besides, the “Max resp % of Ala +IMP (0.2 mM)” value at T1R1/T1R3 receptor [1] (in the presence of 0.2 mM IMP, relative to Ala) is 165.8% and 119.6%. Further, the “Max resp ΔF/F +Alanine (20 mM)” value on T1R1/T1R3 receptor [1] (in the presence of 20 mM alanine) is 1.7725 and 1.2. In addition, the “Max resp % of IMP +Alanine (20 mM)” value on T1R1/T1R3 receptor [1] (in the presence of 20 mM alanine, relative to IMP) is 118.2% and 142.7%. The agonist profile assessment entry on T1R1/T1R3 receptor [2] is recorded as “agonist”. Also, at T1R1/T1R3 receptor [3], the PAM profile assessment entry is on record as “PAM activity”.
With `COC(=O)[C@@H](Cc1ccccc1)NCc1ccccc1.Cl` [N-Benzyl-D-Phenylalanine methyl ester hydrochloride], the agonist profile assessment result on T1R1/T1R3 receptor [2] was “agonist”. Besides, at T1R1/T1R3 receptor [3], the PAM profile assessment result is listed as “PAM activity”.
On to `Cc1ccc(CNC(Cc2ccccc2)C(=O)O)cc1` (centres unmarked) [Formula 23, 2-((4-methylbenzyl)amino)-3-phenylpropanoic acid], for which the T1R1/T1R3 agonist entry at T1R1/T1R3 receptor [2] is listed as “No”. Further, the “T1R1/T1R3 PAM” value on T1R1/T1R3 receptor [3] is listed as “No”.
With `COC(=O)[C@H](Cc1ccccc1)NCc1ccccc1.Cl` [Formula 15, N-Benzyl-L-phenylalanine methyl ester hydrochloride], the T1R1/T1R3 agonist entry at T1R1/T1R3 receptor [2] is listed as “Yes”. Moreover, the “T1R1/T1R3 PAM” value on T1R1/T1R3 receptor [3] is recorded as “Yes”.
With `COC(=O)[C@H](CC(C)C)NCc1ccccc1.Cl` [Formula 18, Benzyl-L-leucine methyl ester hydrochloride], the T1R1/T1R3 agonist entry on T1R1/T1R3 receptor [2] is “Yes”. Moreover, the “T1R1/T1R3 PAM” value on T1R1/T1R3 receptor [3] was “Yes”.
As for `O=C(CN1C(=O)C(=O)N(Cc2ccccc2)C1=O)c1ccccc1` [Formula 1, 1-benzyl-3-(2-oxo-2-phenylethyl)imidazolidine-2,4,5-trione], the T1R1/T1R3 agonist entry at T1R1/T1R3 receptor [2] was “No”. The “T1R1/T1R3 PAM” value at T1R1/T1R3 receptor [3] is reported as “No”.
For `Cl.N[C@@H](Cc1ccccc1)C(=O)OCc1ccccc1` [Formula 20, L-Phenylalanine benzyl ester hydrochloride], the T1R1/T1R3 agonist result on T1R1/T1R3 receptor [2] is reported as “Yes”. The “T1R1/T1R3 PAM” value at T1R1/T1R3 receptor [3] was “Yes”.
For the compound `N#Cc1cccc(NC(=O)CN2C(=O)C(=O)N(Cc3ccccc3)C2=O)c1` [Formula 9, 2-(3-benzyl-2,4,5-trioxoimidazolidin-1-yl)-N-(3-cyanophenyl)acetamide], the T1R1/T1R3 agonist result at T1R1/T1R3 receptor [2] is listed as “No”. For the same compound, at T1R1/T1R3 receptor [3], the “T1R1/T1R3 PAM” value is reported as “No”.
Take `COC(=O)C(NCc1ccccc1)c1ccccc1` (centres unmarked) [Methyl-2-benzylamino-2-phenylacetate]: at T1R1/T1R3 receptor [2], the agonist profile assessment entry is “agonist”. Further, on T1R1/T1R3 receptor [3], the PAM profile assessment result is reported as “PAM activity”.
Take `O=C(CN1C(=O)C(=O)N(CCc2cccs2)C1=O)c1ccccc1` [Formula 6, 1-(2-oxo-2-phenylethyl)-3-(2-(thiophen-2-yl)ethyl)imidazolidine-2,4,5-trione]: the T1R1/T1R3 agonist entry on T1R1/T1R3 receptor [2] is “No”. Also, on T1R1/T1R3 receptor [3], the “T1R1/T1R3 PAM” value was “No”.
On to `O=C(CN1C(=O)C(=O)N(CCc2cccs2)C1=O)c1ccc2c(c1)OCO2` [Formula 7, 1-(2-(benzo[d][1,3]dioxol-5-yl)-2-oxoethyl)-3-(2-(thiophen-2-yl)ethyl)imidazolidine-2,4,5-trione], for which the T1R1/T1R3 agonist entry at T1R1/T1R3 receptor [2] was “No”. For the same compound, on T1R1/T1R3 receptor [3], the “T1R1/T1R3 PAM” value is listed as “No”.
In the case of `CCCC(CCC)NC(=O)c1ccc2c(c1)OCO2` [Formula 14, N-(heptan-4-yl)benzo[d][1,3]dioxole-5-carboxamide], the T1R1/T1R3 agonist result on T1R1/T1R3 receptor [2] was “Yes”. Moreover, the “T1R1/T1R3 PAM” value on T1R1/T1R3 receptor [3] is given as “Yes”.
Take `O=C(CN1C(=O)C(=O)N(CCc2cccs2)C1=O)c1cccc2ccccc12` [Formula 11, 1-(2-(naphthalen-1-yl)-2-oxoethyl)-3-(2-(thiophen-2-yl)ethyl)imidazolidine-2,4,5-trione]: the T1R1/T1R3 agonist result on T1R1/T1R3 receptor [2] is given as “No”. Besides, at T1R1/T1R3 receptor [3], the “T1R1/T1R3 PAM” value is recorded as “No”.
In the case of `COC(=O)[C@H](Cc1ccccc1)NCc1ccccc1` [N-Benzyl-L-phenylalanine methyl ester], the concentration giving a half-maximal response (EC50) at T1R1/T1R3 receptor [4] stood at 20 ± 1 µM. For the same compound, on T1R1/T1R3 receptor [5], the “Thres +IMP (0.2 mM)” value stood at 0.003 mM. Moreover, the agonist profile assessment entry on T1R1/T1R3 receptor [2] was “agonist”. For the same compound, the PAM profile assessment result at T1R1/T1R3 receptor [3] is “PAM activity”.
As to `O=C(CN1C(=O)C(=O)N(Cc2ccccc2)C1=O)c1ccc(Br)cc1` [Formula 3, 1-benzyl-3-(2-(4-bromophenyl)-2-oxoethyl)imidazolidine-2,4,5-trione], the T1R1/T1R3 agonist result at T1R1/T1R3 receptor [2] was “No”. Besides, the “T1R1/T1R3 PAM” value at T1R1/T1R3 receptor [3] is reported as “No”.
As for `O=C1CC(=O)N(Cc2ccccc2)C(=O)N1Cc1ccccc1` [Formula 24, 1,3-dibenzylpyrimidine-2,4,6(1H,3H,5H)-trione], the T1R1/T1R3 agonist entry at T1R1/T1R3 receptor [2] is “Yes”. The “T1R1/T1R3 PAM” value on T1R1/T1R3 receptor [3] is reported as “No”.
As for `O=C(CN1C(=O)C(=O)N(Cc2ccccc2)C1=O)c1ccc(Cl)s1` [Formula 12, 1-benzyl-3-(2-(5-chlorothiophen-2-yl)-2-oxoethyl)imidazolidine-2,4,5-trione], the T1R1/T1R3 agonist result on T1R1/T1R3 receptor [2] is listed as “No”. Moreover, the “T1R1/T1R3 PAM” value on T1R1/T1R3 receptor [3] is “Weak PAM”.
Regarding `O=C(CN1C(=O)C(=O)N(Cc2ccccc2)C1=O)c1ccc2c(c1)CCC2` [Formula 2, 1-benzyl-3-(2-(2,3-dihydro-1H-inden-5-yl)-2-oxoethyl)imidazolidine-2,4,5-trione], the T1R1/T1R3 agonist entry at T1R1/T1R3 receptor [2] is “No”. Moreover, the “T1R1/T1R3 PAM” value at T1R1/T1R3 receptor [3] is on record as “No”.
`COc1ccc(C(=O)CN2C(=O)C(=O)N(Cc3ccccc3)C2=O)c(OC)c1` [Formula 5, 1-benzyl-3-(2-(2,4-dimethoxyphenyl)-2-oxoethyl)imidazolidine-2,4,5-trione]: the T1R1/T1R3 agonist result at T1R1/T1R3 receptor [2] is listed as “No”. Also, the “T1R1/T1R3 PAM” value at T1R1/T1R3 receptor [3] is given as “No”.
For the compound `O=C(CN1C(=O)C(=O)N(Cc2ccccc2)C1=O)c1ccc2c(c1)OCCO2` [Formula 4, 1-benzyl-3-(2-(2,3-dihydrobenzo[b][1,4]dioxin-6-yl)-2-oxoethyl)imidazolidine-2,4,5-trione], the T1R1/T1R3 agonist entry on T1R1/T1R3 receptor [2] is recorded as “No”. Also, the “T1R1/T1R3 PAM” value on T1R1/T1R3 receptor [3] is given as “No”.
In the case of `COC(=O)C(NCc1ccccc1)c1ccccc1` (centres unmarked) [Formula 19, Methyl-2-benzylamino-2-phenylacetate], the T1R1/T1R3 agonist entry at T1R1/T1R3 receptor [2] was “Yes”. For the same compound, the “T1R1/T1R3 PAM” value on T1R1/T1R3 receptor [3] is listed as “Yes”.
For the compound `COc1ccccc1C(=O)CN1C(=O)C(=O)N(Cc2cccs2)C1=O` [Formula 10, 1-(2-(2-methoxyphenyl)-2-oxoethyl)-3-(thiophen-2-ylmethyl)imidazolidine-2,4,5-trione], the T1R1/T1R3 agonist entry at T1R1/T1R3 receptor [2] is “No”. Besides, the “T1R1/T1R3 PAM” value on T1R1/T1R3 receptor [3] is “No”.

As usually defined, the EC50 is the midpoint of the concentration-response curve.
